In general, melting point refers to the temperature, or range, at which the solid turns liquid.

We go through two molecules from patent US6525098B1, “6-methoxy-2-naphthylacetic acid prodrugs” (Nobex Corporation, priority 1999, dated 2003).

One series deals with rat paw edema. Briefly: rat paw edema. The series is classed as in vivo.
The nature of series [1]: analysis of blood samples / plasma levels in rats after oral delivery. Format: in vivo. An excerpt: FIG. 1 is a graph of in plasma levels of Example 1 compared to Nabumetone.
The conditions of series [2]: oral administration; cited from earlier work.

Molecules are shown by their SMILES.

The molecule `COc1ccc2cc(CCO)ccc2c1` [Example 1, 2-(6-Methoxy-naphthalen-2-yl)-ethanol] showed a melting point of 110 to 113 °C. Moreover, in the series on rat paw edema, the “rat paw edema, % inhibition” value is reported as 67.5%. In series [1], the “plasma levels and onset compared to Nabumetone (FIG. 1)” value is given as “higher plasma levels, with more rapid onset”.
On to `COc1ccc2cc(CCC(C)=O)ccc2c1` [Nabumetone, nabumetone, reference compound], for which, in the series on rat paw edema, the “rat paw edema, % inhibition” value is 60.0%. Also, the “fraction of orally administered nabumetone transferred in vivo into 6MNA” value in series [2] is “about 35%”.
